{"source": "paper PMC2810227", "about": "“3-O-Methylfunicone, a Selective Inhibitor of Mammalian Y-Family DNA Polymerases from an Australian Sea Salt Fungal Strain” (Marine Drugs, 2009)", "key": {"[1]": {"target": "T1, pol α from calf thymus (Bos taurus, UniProt A0AAA9TD94)", "T1 construct": "Pol α was purified from calf thymus; from tissue; host or cells: calf thymus", "assay": "DNA polymerase assay, pol α", "format": "biochemical", "settings": "100 μM", "excerpt": "(§1) Pol α was purified from calf thymus by immuno-affinity column chromatography, as described by Tamai et al.. Recombinant rat pol β was purified from E. coli JMpβ5, as described by Date et al.. The human pol γ catalytic gene was cloned into pFastBac. Histidine-tagged enzyme was expressed using the BAC-TO-BAC HT Baculovirus Expression System according to the supplier’s manual (Life Technologies, MD, USA) and purified using ProBoundresin (Invitrogen Japan, Tokyo, Japan). Human pols δ and ɛ were purified by nuclear fractionation of human peripheral blood cancer cells (Molt-4) using the second subunit of pols δ and ɛ-conjugated affinity column chromatography, respectively. A truncated form of human pol η (residues 1–511) tagged with His6 at its C-terminal was expressed in E. coli cells and purified as described by Kusumoto et al.. A recombinant mouse pol ι tagged with His6 at its C-terminal was expressed and purified by Ni-NTA column chromatography as described elsewhere (Masutani et al., in preparation). […]\n(§2) The compounds were dissolved in distilled dimethyl sulfoxide (DMSO) at various concentrations and sonicated for 30 sec. […] Activity without the inhibitor was considered 100%, and the remaining activity at each concentration of the inhibitor was determined relative to this value. […]"}, "[2]": {"target": "T2, human pol δ (Homo sapiens, UniProt P28340)", "T2 construct": "purified by nuclear fractionation of human peripheral blood cancer cells (Molt-4); endogenous in cells; host or cells: Molt-4", "assay": "DNA polymerase assay, pol δ", "format": "biochemical", "settings": "100 μM", "excerpt": "as §1, §2"}, "[3]": {"target": "T3, human pol ɛ (Homo sapiens, UniProt Q07864)", "T3 construct": "purified by nuclear fractionation of human peripheral blood cancer cells (Molt-4); endogenous in cells; host or cells: Molt-4", "assay": "DNA polymerase assay, pol ɛ", "format": "biochemical", "settings": "100 μM", "excerpt": "as §1, §2"}, "[4]": {"target": "T4, fruit fly pol ɛ (Drosophila melanogaster, UniProt Q9VCN1)", "T4 construct": "purified from early embryos of Drosophila melanogaster; from tissue; host or cells: early embryos of Drosophila melanogaster", "T4 sequence (Q9VCN1 whole entry)": "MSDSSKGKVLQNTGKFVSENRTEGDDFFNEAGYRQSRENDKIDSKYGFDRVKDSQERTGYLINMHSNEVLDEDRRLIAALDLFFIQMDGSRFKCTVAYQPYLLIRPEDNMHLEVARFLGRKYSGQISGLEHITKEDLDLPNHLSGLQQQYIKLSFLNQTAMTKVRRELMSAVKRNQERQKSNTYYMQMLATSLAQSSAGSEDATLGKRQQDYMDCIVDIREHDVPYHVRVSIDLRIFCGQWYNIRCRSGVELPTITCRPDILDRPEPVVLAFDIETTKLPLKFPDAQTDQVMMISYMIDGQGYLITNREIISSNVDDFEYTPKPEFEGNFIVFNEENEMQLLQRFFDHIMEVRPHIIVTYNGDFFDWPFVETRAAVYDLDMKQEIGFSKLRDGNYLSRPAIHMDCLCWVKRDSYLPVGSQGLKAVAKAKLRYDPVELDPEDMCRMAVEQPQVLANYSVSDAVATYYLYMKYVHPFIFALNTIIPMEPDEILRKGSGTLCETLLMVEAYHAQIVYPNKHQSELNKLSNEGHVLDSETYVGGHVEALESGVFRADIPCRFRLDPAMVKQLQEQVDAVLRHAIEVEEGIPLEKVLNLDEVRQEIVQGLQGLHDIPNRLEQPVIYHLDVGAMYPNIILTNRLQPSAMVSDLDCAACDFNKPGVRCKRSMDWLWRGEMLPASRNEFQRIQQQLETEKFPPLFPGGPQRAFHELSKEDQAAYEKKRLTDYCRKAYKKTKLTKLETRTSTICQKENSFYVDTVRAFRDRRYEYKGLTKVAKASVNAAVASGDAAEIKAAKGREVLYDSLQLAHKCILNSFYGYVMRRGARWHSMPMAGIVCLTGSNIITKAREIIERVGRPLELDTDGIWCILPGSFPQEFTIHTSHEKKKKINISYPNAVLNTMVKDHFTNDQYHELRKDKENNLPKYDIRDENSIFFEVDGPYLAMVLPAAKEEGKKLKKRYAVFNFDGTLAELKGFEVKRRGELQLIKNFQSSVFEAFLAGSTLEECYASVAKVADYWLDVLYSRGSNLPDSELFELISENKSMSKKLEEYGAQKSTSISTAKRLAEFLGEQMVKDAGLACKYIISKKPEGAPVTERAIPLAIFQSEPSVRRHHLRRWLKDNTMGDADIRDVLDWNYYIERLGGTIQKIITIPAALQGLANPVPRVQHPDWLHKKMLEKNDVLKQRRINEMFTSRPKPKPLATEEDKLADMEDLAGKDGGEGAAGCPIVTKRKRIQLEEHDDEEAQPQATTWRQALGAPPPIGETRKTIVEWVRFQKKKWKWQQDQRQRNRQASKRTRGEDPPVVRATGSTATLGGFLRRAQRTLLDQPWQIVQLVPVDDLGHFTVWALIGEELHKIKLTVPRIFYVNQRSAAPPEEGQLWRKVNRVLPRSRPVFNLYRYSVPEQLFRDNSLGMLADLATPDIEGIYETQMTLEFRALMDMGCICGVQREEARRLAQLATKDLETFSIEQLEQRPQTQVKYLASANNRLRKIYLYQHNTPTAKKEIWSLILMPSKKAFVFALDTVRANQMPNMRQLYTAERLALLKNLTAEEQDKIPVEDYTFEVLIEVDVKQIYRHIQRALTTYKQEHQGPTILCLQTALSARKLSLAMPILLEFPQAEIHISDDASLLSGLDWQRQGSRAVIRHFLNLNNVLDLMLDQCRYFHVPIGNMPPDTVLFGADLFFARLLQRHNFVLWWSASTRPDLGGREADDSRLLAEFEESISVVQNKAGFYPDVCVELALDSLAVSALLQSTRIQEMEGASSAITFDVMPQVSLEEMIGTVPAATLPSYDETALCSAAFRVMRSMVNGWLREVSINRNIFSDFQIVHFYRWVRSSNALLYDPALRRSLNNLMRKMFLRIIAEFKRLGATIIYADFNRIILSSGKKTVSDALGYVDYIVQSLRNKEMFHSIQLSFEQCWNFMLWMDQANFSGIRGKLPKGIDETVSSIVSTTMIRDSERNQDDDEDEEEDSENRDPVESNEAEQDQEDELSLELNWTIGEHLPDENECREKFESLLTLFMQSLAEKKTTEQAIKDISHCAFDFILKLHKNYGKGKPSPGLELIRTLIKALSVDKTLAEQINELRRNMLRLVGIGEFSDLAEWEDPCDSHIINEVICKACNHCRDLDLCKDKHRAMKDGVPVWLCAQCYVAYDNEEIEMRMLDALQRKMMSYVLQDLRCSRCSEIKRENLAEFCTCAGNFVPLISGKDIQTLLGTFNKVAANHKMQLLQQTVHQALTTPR", "assay": "DNA polymerase assay, insect pol ɛ", "format": "biochemical", "settings": "100 μM", "excerpt": "as §1, §2"}, "[5]": {"target": "T5, Klenow fragment of E. coli pol I (Escherichia coli, UniProt P00582)", "T5 construct": "the Klenow fragment of pol I from E. coli; purchased Worthington Biochemical Corp. (Freehold, NJ, USA)", "T5 sequence (P00582 324-928)": "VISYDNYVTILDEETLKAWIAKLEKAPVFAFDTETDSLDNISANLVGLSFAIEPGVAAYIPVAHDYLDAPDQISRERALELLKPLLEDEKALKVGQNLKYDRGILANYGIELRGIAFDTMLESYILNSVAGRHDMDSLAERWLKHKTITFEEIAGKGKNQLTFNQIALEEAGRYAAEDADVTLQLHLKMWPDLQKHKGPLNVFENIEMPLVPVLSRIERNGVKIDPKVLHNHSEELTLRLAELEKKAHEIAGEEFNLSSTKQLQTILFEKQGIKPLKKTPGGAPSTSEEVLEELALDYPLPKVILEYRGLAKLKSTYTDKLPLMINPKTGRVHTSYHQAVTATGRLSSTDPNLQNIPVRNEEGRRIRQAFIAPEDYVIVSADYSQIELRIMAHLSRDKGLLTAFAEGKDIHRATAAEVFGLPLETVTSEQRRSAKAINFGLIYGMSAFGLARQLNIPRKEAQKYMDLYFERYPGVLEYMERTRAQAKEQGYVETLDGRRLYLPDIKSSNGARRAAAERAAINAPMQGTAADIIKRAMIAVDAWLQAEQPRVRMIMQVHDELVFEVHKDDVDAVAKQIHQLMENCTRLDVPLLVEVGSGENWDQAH", "assay": "DNA polymerase assay, Klenow fragment", "format": "biochemical", "settings": "100 μM", "excerpt": "as §1, §2"}, "[6]": {"target": "T6, T4 pol (Enterobacteria phage T4, UniProt P04415)", "T6 construct": "purchased Takara Bio (Tokyo, Japan)", "T6 sequence (P04415 whole entry)": "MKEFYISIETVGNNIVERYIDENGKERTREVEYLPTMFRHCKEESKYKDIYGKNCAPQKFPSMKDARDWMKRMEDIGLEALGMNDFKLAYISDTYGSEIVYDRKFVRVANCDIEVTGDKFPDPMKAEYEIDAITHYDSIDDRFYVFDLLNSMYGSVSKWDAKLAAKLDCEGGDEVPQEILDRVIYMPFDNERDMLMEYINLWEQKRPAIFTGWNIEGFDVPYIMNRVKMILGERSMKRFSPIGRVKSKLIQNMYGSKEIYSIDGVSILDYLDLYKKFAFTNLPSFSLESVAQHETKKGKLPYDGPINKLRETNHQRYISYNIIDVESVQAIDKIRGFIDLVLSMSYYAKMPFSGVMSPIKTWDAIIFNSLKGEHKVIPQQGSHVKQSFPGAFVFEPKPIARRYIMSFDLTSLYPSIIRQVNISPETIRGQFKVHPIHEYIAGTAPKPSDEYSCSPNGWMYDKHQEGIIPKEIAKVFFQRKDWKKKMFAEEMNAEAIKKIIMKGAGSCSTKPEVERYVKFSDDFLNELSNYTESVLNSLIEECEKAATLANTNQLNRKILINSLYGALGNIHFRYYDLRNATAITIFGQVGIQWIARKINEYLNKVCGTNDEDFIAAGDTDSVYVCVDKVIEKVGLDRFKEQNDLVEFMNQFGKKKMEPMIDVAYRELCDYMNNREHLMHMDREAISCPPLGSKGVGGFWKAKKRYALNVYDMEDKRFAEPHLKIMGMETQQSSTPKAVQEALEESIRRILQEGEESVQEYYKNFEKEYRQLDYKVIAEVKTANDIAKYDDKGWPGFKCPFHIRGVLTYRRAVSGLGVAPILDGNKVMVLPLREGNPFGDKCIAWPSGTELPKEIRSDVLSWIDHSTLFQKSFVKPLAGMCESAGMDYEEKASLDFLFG", "assay": "DNA polymerase assay, T4 pol", "format": "biochemical", "settings": "100 μM", "excerpt": "as §1, §2"}, "[7]": {"target": "mouse inosine 5′-monophosphate (IMP) dehydrogenase (type II) (Mus musculus, UniProt P24547)", "sequence (P24547 whole entry)": "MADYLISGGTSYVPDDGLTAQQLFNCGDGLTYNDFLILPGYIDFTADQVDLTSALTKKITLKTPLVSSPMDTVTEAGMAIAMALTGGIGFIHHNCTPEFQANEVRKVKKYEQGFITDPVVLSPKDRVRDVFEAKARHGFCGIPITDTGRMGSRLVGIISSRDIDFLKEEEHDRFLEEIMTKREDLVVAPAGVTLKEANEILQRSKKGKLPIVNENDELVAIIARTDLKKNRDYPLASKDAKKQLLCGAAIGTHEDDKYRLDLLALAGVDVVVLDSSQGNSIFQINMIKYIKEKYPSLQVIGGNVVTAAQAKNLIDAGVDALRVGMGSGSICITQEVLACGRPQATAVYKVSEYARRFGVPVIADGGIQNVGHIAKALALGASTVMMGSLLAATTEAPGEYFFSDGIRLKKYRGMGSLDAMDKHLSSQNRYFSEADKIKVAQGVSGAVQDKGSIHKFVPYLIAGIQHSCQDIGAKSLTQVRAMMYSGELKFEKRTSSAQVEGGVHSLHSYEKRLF", "assay": "IMP dehydrogenase assay", "format": "biochemical", "settings": "100 μM", "protocol": "(§3) The activities of calf primase of pol α, human telomerase, T7 RNA polymerase, mouse IMP dehydrogenase, human DNA topoisomerases I and II, T4 polynucleotide kinase and bovine DNase I were measured in standard assays according to the manufacturer’s specifications, as described by Tamiya-Koizumi et al., Oda et al., Nakayama et al., Mizushina et al., Ishimaru et al., Soltis et al. and Lu et al., respectively."}, "[8]": {"target": "T7, T4 polynucleotide kinase (Enterobacteria phage T4, UniProt P06855)", "T7 construct": "purchased Takara Bio (Tokyo, Japan)", "T7 sequence (P06855 whole entry)": "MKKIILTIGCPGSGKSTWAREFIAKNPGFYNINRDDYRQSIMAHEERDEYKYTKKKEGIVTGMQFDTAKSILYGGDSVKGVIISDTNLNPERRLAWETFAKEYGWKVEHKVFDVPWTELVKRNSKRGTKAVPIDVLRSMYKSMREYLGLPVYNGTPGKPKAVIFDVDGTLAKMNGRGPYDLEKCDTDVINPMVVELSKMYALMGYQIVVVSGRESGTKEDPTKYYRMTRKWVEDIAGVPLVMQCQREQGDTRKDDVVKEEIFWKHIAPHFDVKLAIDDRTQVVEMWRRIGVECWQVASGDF", "assay": "T4 polynucleotide kinase assay", "format": "biochemical", "settings": "100 μM", "excerpt": "as §1, with “al..” for “al.. A recombinant mouse pol ι tagged with His6 at its C-terminal was expressed and purified by Ni-NTA column chromatography as described elsewhere (Masutani et al., in preparation).”\nas §3"}, "[9]": {"tested_on": "HDF (human dermal fibroblast)", "assay": "Proliferation and growth of normal cells, HDF", "format": "cell-based", "settings": "data not shown"}}}
{"smiles": "C/C=C/c1occ(C(=O)c2c(OC)cc(OC)cc2C(=O)OC)c(=O)c1OC", "note": "[compound 1, 3-O-methylfunicone]", "values": [{"measurement": "effect on pol α activity", "setting": "[1]", "value": "hardly influenced"}, {"measurement": "effect on pol δ activity", "setting": "[2]", "value": "hardly influenced"}, {"measurement": "effect on pol ɛ activity", "setting": "[3]", "value": "hardly influenced"}, {"measurement": "effect on fruit fly pol ɛ activity", "setting": "[4]", "value": "hardly influenced"}, {"measurement": "effect on Klenow fragment of E. coli pol I activity", "setting": "[5]", "value": "no effect"}, {"measurement": "effect on T4 pol activity", "setting": "[6]", "value": "no effect"}, {"measurement": "effect on mouse IMP dehydrogenase (type II) activity", "setting": "[7]", "value": "did not influence"}, {"measurement": "effect on T4 polynucleotide kinase activity", "setting": "[8]", "value": "did not influence"}, {"measurement": "effect on cell proliferation and growth", "setting": "[9]", "value": "did not influence"}]}
